The record followed here is patent publication US10414759B2, “Phenylthiazoles and uses thereof” (Purdue Research Foundation, priority 2017, dated 2019).

Converted amounts (≈) assume the structure as drawn. “Also recorded” adds a separate entry of the source. Read-outs that look alike come from different tables or passages of the source.

The test system of one data set is Caco-2 cells. Kind of data set: Caco-2 bidirectional permeability assay. The following applies: for Mean A→B Papp: Caco-2, apical to basolateral. In general terms: Passage across Caco-2 layers is used to estimate intestinal permeability.
Data set [1] is described as follows: PBS solubility screen (turbidometric). It counts as physicochemical. The method, then: The solutions were diluted 100-fold into PBS in a 96-well plate and mixed. The absorbance of the PBS-containing plate was measured prior to addition of the test agents to determine the background absorbance. After 2 h, the presence of precipitate was detected by turbidity (absorbance at 540 nm). […] The solubility limit is reported as the highest experimental concentration with no evidence of turbidity.

A further data set concerns MRSA (2658 RCMB). Kind of data set: MIC against MRSA (2658 RCMB), broth dilution. The format is cell-based, Staphylococcus aureus. The note with it: for MIC: Staphylococcus aureus. The method, then: Bacteria were cultured in cation-adjusted Mueller Hinton broth in a 96-well plate. Compounds, using triplicate samples, were added to the plate and serially diluted. […] Plates were visually inspected and the MIC was categorized as the concentration at which no visible growth of bacteria was observed. The average of triplicate MIC determinations is reported.
(§1) A bacterial solution equivalent to 0.5 McFarland standard was prepared and diluted in cation-adjusted Mueller-Hinton broth (CAMHB) to achieve a bacterial concentration of about 5×10^5 CFU/mL and seeded in 96-well plates. Enterococcus faecium was diluted in brain heart infusion broth. Enterococcus faecalis, Streptococcus pneumonia and Listeria monocytogenes were diluted in tryptone soya broth (TSB).

A short description of data set [2]: Metabolic stability in human liver microsomes. It counts as in vitro ADME. The following applies: pH 7.4, human liver microsomes. The method, then:
The tested compounds were incubated in duplicate with human liver microsomes at 37° C. The reaction contained microsomal protein in 100 mM potassium phosphate, 2 mM NADPH, 3 mM MgCl2, pH 7.4. A control was run for each test agent omitting NADPH to detect NADPH-free degradation. At 0, 10, 20, 40, and 60 minutes, an aliquot was removed from each experimental and control reaction and mixed with an equal volume of ice-cold Stop Solution (methanol containing haloperidol, diclofenac, or other internal standard). Stopped reactions are incubated at least ten minutes at −20° C., and an additional volume of water was added. The samples were centrifuged to remove precipitated protein, and the supernatants were analyzed by LC/MS/MS to quantitate the remaining parent. Data are converted to % remaining by dividing by the time zero concentration value. Data are fit to a first-order decay model to determine half-life. Intrinsic clearance is calculated from the half-life and the protein concentrations: CLint=ln(2)/(T1/2 [microsomal protein]).
A general note: Liver microsomes are a subcellular fraction often used to study metabolism.

Data set [3] concerns Enterococcus faecium ATCC 700221 (VRE). Kind of data set: MIC/MBC Gram-positive pathogens (Table 9). The note with it: Table 9; Enterococcus faecium ATCC 700221 (VRE); read-out: MIC. It counts as cell-based. As to the method: The minimum inhibitory concentration (MIC) of tested compounds and control antibiotics were determined using the broth microdilution method in accordance with the recommendations contained in the Clinical and Laboratory Standards Institute guidelines, against methicillin-sensitive (ATCC 6538 and NRS107), methicillin-resistant (MRSA), and vancomycin-resistant (VRSA) Staphylococcus aureus, Staphylococcus epidermidis, Enterococcus faecalis, E. faecium, Listeria monocytogenes, and Streptococcus pneumoniae clinical isolates. A bacterial solution equivalent to 0.5 McFarland standard was prepared and diluted in cation-adjusted Mueller-Hinton broth (CAMHB) to achieve a bacterial concentration of about 5×10^5 CFU/mL and seeded in 96-well plates. Enterococcus faecium was diluted in brain heart infusion broth. Enterococcus faecalis, Streptococcus pneumonia and Listeria monocytogenes were diluted in tryptone soya broth (TSB). Compounds and control drugs were added in the first row of 96-well plates and serially diluted (to achieve a concentration gradient ranging from 128 to 1 μg/mL). Plates were then incubated aerobically at 37° C. for at least 18 hours. The minimum bactericidal concentration (MBC) of the active compounds was tested by plating 5 μL from wells with no growth onto Tryptic soy agar (TSA) plates.

The subject of data set [4] is Enterococcus faecalis ATCC 51299 (VRE). Kind of data set: MIC/MBC Gram-positive pathogens (Table 9). It counts as cell-based. The note with it: Table 9; Enterococcus faecalis ATCC 51299 (VRE). The method, then:
as §1

In data set [5] the test system is Methicillin-resistant Staphylococcus epidermidis NRS101. Kind of data set: MIC/MBC Gram-positive pathogens (Table 9). It counts as cell-based. As to the method:
as §1

A further data set concerns MRSA (USA300). Kind of data set: Time-kill assay. The note with it: 3.0×MIC. The format is cell-based, Staphylococcus aureus. As to the method: Aliquots (100 μL) were taken from each sample after 2, 4, 6, 8, 10, 12, and 24 hours, serially diluted in phosphate-buffered saline, and transferred to Trypticase soy agar (TSA) (Becton, Dickinson and Company, Sparks, Md., USA) plates. Plates were incubated at 37° C. for at least 16 hours before counting viable CFU/mL to determine the time required to reduce the bacterial cell count by 3-log10.

The test system of another data set is S. aureus ATCC 6538. Kind of data set: MIC/MBC S. aureus strains (Table 8). The note with it: Staphylococcus aureus, ATCC6538. It counts as cell-based. As to the method:
as §1

The test system of the next data set is MRSA NRS384 (USA300). Kind of data set: MIC/MBC S. aureus strains (Table 8). It counts as cell-based. The note with it: Staphylococcus aureus. The method, then: as §1
In the next data set the test system is MRSA NRS385. Kind of data set: MIC/MBC S. aureus strains (Table 8). It counts as cell-based. The following applies: Staphylococcus aureus. As to the method: as §1
Where [6] appears, read: aqueous buffer, kinetic from dmso stock.
Setting [7] is: Table 1, MRSA (2658 RCMB), read-out: MIC ± SD.
The mark [8] stands for this setting: NADPH omitted, read-out: NADPH-free Clint.
Setting [9] is: NADPH omitted, read-out: NADPH-free t1/2.
Setting [10] is: with NADPH, read-out: NADPH-dependent CLint.
The mark [11] stands for this setting: with NADPH, read-out: NADPH-dependent t1/2.
Where [12] appears, read: aqueous buffer, kinetic from dmso stock, phosphate buffered saline (PBS), highest concentration with no precipitate (OD540), read-out: Solubility limit.

`CCCCc1ccc(-c2nc(C)c(-c3ccnc(N)n3)s2)cc1` [Compound 8, 4-[2-(4-Butylphenyl)-4-methylthiazol-5-yl]pyrimidin-2-amine] had a melting point of 159 °C. Further, in the data set on Caco-2 cells, the “Mean A→B Papp” value stood at 14.9 ×10⁻⁶ cm/s. Moreover, in the data set with Caco-2 cells (Caco-2, basolateral to apical), the “Mean B→A Papp” value amounted to 17 ×10⁻⁶ cm/s. For the same compound, in the data set with Caco-2 cells (Papp (B→A)/Papp (A→B)), the Efflux ratio was found to be 1.1. Further, in data set [1] (2 h), the “less soluble than the lead compound 1” value was 32%. In addition, the solubility at 2 h in data set [1] (setting [6]) was 42 µM (≈ 13.6 µg/mL). For the same compound, the MIC in the data set on MRSA (2658 RCMB) (setting [7]) was 3.12 ± 0.1 µg/mL (≈ 9.62 µM). In the data set on MRSA (2658 RCMB) (Table 1, MRSA (2658 RCMB)), the “MIC ± SD” value amounted to 3.12 ± 0.10 µg/mL (≈ 9.62 µM). In addition, in data set [2] (setting [8]), the microsomal CLint was determined as 0.5 µL/min/mg. Moreover, the half-life in data set [2] (setting [9]) was over 1 h. In data set [2] (setting [10]), the microsomal CLint fell in the range of 3 to 7.5 µL/min/mg. For the same compound, the half-life in data set [2] (setting [11]) came out at 3.25 h.
`CCCCc1ccc(-c2nc(C)c(-c3ccnc(NC(=N)N(C)C)n3)s2)cc1` [Compound 11, 3-{4-[2-(4-Butylphenyl)-4-methylthiazol-5-yl]pyrimidin-2-yl}-1,1-dimethylguanidine] yielded a melting point of 153.7 °C. The solubility at 2 h in data set [1] (setting [6]) was 53 µM (≈ 20.9 µg/mL). Also, the MIC in the data set with MRSA (2658 RCMB) (setting [7]) worked out at 0.78 µg/mL (≈ 1.98 µM). Moreover, in the data set on MRSA (2658 RCMB) (Table 1), the “antibacterial (anti-MRSA) activity, in words” value is “more potent than vancomycin; also recorded: MIC value below one microgram/mL”. The microsomal CLint in data set [2] (setting [8]) is 0.5 µL/min/mg. In addition, in data set [2] (setting [9]), the half-life is over 1 h. Further, the half-life in [2] (setting [11]) came out at 4.05 h.
`Cc1nc(-c2ccc(-c3ccoc3)cc2)sc1-c1ccnc(N)n1` [Compound 24, 4-{2-[4-(Furan-3-yl)phenyl]-4-methylthiazol-5-yl}pyrimidin-2-amine] displayed a melting point of 161.2 °C. Also, the solubility at 2 h in data set [1] (setting [12]) amounted to 13 µM (≈ 4.35 µg/mL). The MIC with MRSA (2658 RCMB) (MRSA, read-out: MIC ± SD) stood at 7.8 ± 0.5 µg/mL (≈ 23.3 µM).
On the same counts, the results for `Cc1nc(-c2ccc(-c3ccco3)cc2)sc1-c1ccnc(N)n1` [Compound 25, 4-{2-[4-(Furan-2-yl)phenyl]-4-methylthiazol-5-yl}pyrimidin-2-amine] are 209.3 °C, 14 µM (≈ 4.68 µg/mL) and 8.7 ± 0.3 µg/mL (≈ 26 µM).
For the compound `Cc1nc(-c2ccc(-c3ccsc3)cc2)sc1-c1ccnc(N)n1` [Compound 26, 4-{4-Methyl-2-[4-(thiophen-3-yl)phenyl]thiazol-5-yl}pyrimidin-2-amine], the melting point was 225 °C (dec.). This compound showed a solubility at 2 h in data set [1] (setting [6]) of 8.5 µM (≈ 2.98 µg/mL). The MIC in the data set on MRSA (2658 RCMB) (setting [7]) is 6.25 µg/mL (≈ 17.8 µM).
Turning to `Cc1nc(-c2ccc(C3=CCCC3)cc2)sc1-c1ccnc(N)n1` [Compound 27, 4-{2-[4-(Cyclopent-1-en-1-yl)phenyl]-4-methylthiazol-5-yl}pyrimidin-2-amine], the melting point was 160.6 °C. The compound further had a solubility at 2 h in data set [1] (setting [6]) of 35 µM (≈ 11.7 µg/mL). Besides, in the data set with MRSA (2658 RCMB) (setting [7]), the MIC is 3.12 µg/mL (≈ 9.33 µM).
The corresponding values for `Cc1nc(-c2ccc(C3=CCCCC3)cc2)sc1-c1ccnc(N)n1` [Compound 29, 4-{2-[4-(Cyclohex-1-en-1-yl)phenyl]-4-methylthiazol-5-yl}pyrimidin-2-amine] are 140.4 °C, 37 µM (≈ 12.9 µg/mL) and 0.78 µg/mL (≈ 2.24 µM).
As for `Cc1nc(-c2ccc(C(C)(C)C)cc2)sc1-c1ccnc(NC(=N)N2CCOCC2)n1` [Compound 61, N-(4-(2-(4-(tert-Butyl)phenyl)-4-methylthiazol-5-yl)pyrimidin-2-yl) morpholine-4-carboximidamide], the MIC came out at 4 µg/mL (≈ 9.16 µM) in data set [3]; 4 µg/mL (≈ 9.16 µM) in data set [4]; 4 µg/mL (≈ 9.16 µM) in data set [5]; 1.17 µg/mL (≈ 2.68 µM) in the data set on MRSA (2658 RCMB) (Table 7, initial screening, MRSA (2658 RCMB), read-out: minimum inhibitory concentration (MIC)); 4 µg/mL (≈ 9.16 µM) with S. aureus ATCC 6538; 4 µg/mL (≈ 9.16 µM) in the data set with MRSA NRS384 (USA300). The compound also returned an MIC in the data set on MRSA NRS385 of 4 µg/mL (≈ 9.16 µM). In data set [5], the MBC turned out to be 4 µg/mL (≈ 9.16 µM). Further, in the data set with MRSA (USA300) (MRSA), the “bactericidal / bacteriostatic behaviour in time-kill assay, in words” value is “rapid bactericidal activity”. The “time to completely eradicate the MRSA inoculum” value in the data set on MRSA (USA300) (t-butyl series) is on record as “within two to four hours”.
For the compound `CNC(=C[N+](=O)[O-])NCCSCc1ccc(CN(C)C)o1` [Ranitidine, ranitidine, reference compound], the “Mean A→B Papp” value in the data set with Caco-2 cells was found to be 0.2 ×10⁻⁶ cm/s.
Turning to `COC(=O)[C@H]1[C@H]2C[C@@H]3c4[nH]c5cc(OC)ccc5c4CCN3C[C@H]2C[C@@H](OC(=O)c2cc(OC)c(OC)c(OC)c2)[C@@H]1OC` [Reserpine, reserpine, reference compound], the solubility at 2 h in data set [1] (phosphate buffered saline (PBS), highest concentration with no precipitate (OD540), read-out: Solubility limit) is 31.3 µM (≈ 19.1 µg/mL).
With `CC(=O)CC(c1ccccc1)c1c(O)c2ccccc2oc1=O` (centres unmarked) [Warfarin, warfarin, reference compound], in [2] (setting [10]), the microsomal CLint amounted to 0.3 µL/min/mg.

One may read the melting point as the temperature, or range, at which the solid turns liquid. As usually defined, the solubility is the concentration that dissolves in the medium under given conditions. The MBC is the lowest tested concentration that kills the bacteria rather than only halting them. A lower MBC goes with greater bactericidal potency.
